As usually defined, the melting point is the temperature, or range, at which the solid turns liquid.

The compound `CCOC(=O)c1cn(-c2ccc(F)cc2F)c2nc(N3CCNCC3)c(F)cc2c1=O` showed a melting point of 208 to 211 °C.
The value for `CCC1(c2cccc(O)c2)CNCC(C)O1` (stereo unspecified) was 75 to 105 °C; that for `NC(=O)c1[nH]c2ccc(Cl)cc2c1S(=O)(=O)c1ccccc1Cl` was 267 °C.
The value for `O=C(O)Cc1sc2nc3ncccc3n2c1-c1ccc(Cl)cc1` was 250 to 252 °C.
For `CCOC(=O)c1c(CN(CC)CC)nc2sc3c(c2c1-c1ccc(OC)c(OC)c1)CCN=C3`, the melting point is 118 to 120 °C.
In turn, `CCOC(=O)C(C#N)C(=O)c1nn(-c2ccccc2)c2c1COc1ccccc1-2` (stereo unspecified) displayed a melting point of 176 to 178 °C.
The value for `COc1ccc(-n2nc(CCC#N)cc2-c2ccc(Cl)cc2)cc1` was 107 to 109 °C.
With `CNc1nc(N(C)C)nc2c1nnn2Cc1ccccc1F`, the melting point was in the range of 199 to 200 °C.
The value for `Fc1ccc2c(CN3CCc4ccccc4C3)c[nH]c2c1` was 144 to 145 °C; that for `Cn1cc(-c2cc3cccnc3[nH]2)c2cc(C(=O)NCC(O)CO)ccc21` (stereo unspecified) was 171 to 172 °C; that for `Cc1cc2c3c(cc(C)c2[nH]c1=O)CC(CBr)O3` (stereo unspecified) was 277 to 278 °C.
The value for `Cc1c(-c2ccc(C3=CCN(C(=O)OC(C)(C)C)CC3)cc2)nc2n1CCc1ccccc1C2OC1CCN(C)CC1` (stereo unspecified) was 171 °C.
As to `CC(C)(C)Sc1c(CC(C)(C)C(=O)O)n(Cc2ccc(Cl)cc2)c2c(OCc3ccc4ccccc4n3)cccc12`, the melting point was 206 °C.
Regarding `CSCC(C)(C)C(=O)N(C)c1cnc(-c2cncc(F)c2)s1`, the melting point fell in the range of 98 to 102 °C.
Then `CCCn1nc2c(N)nc3ccccc3c2c1CCCCN1C(C)=NOC12CCCC2`, with 101 to 105 °C; and `NC(=O)c1c(Cl)c(Cl)c(Cl)c(Cl)c1Cl`, with 268 to 270 °C.
With `Cc1noc(C)c1S(=O)(=O)n1c(CCCC(=O)O)cc2cc(Cl)ccc21`, the melting point was in the range of 150 to 154 °C.
For `CCCN(c1ccncc1)N1C(=O)C(C)(C)c2ccccc21`, the melting point was 125 to 127 °C.
Turning to `CCOC(=O)CCc1ccc(OCCCc2cn(-c3ccc(C(F)(F)F)cn3)nc2OCC)c(O)c1`, the melting point was 92 to 93 °C.
In turn, `CC1(c2ccc(OCc3ccccc3)c(C=O)c2)OCCO1` had a melting point of 78 to 80 °C.
Then `CCC(=C(c1ccc(O)cc1)c1ccc(O)cc1)c1ccc(OCC(=O)O)c(OC)c1`, with 253 to 254 °C; and `CC(=Cc1ccc(N)cc1)c1ccc2c(c1)C(C)(C)CCC2(C)C`, with 106 to 108 °C; and `CCCc1c(OC(C(=O)O)c2ccc(Cl)cc2)ccc(C(C)=O)c1O` (stereo unspecified), with 163 to 164 °C.
In turn, `CCn1c(C(C)NS(=O)(=O)c2ccc(Cl)c(Cl)c2)cnc1Sc1ccc(C)cc1` (stereo unspecified) displayed a melting point of 173 to 174 °C.
The value for `CCCCOc1ccc2c(O)c(C(=O)NCC(=O)O)ncc2c1` was 151 to 153 °C; that for `CC(C)(O)c1ccc(-c2cnc3[nH]c(=O)n(CC4CCCCC4)c3n2)cc1` was 226 to 228 °C; that for `CC(C)(C)OC(=O)N[C@H](CC(=O)OCc1ccccc1)C(=O)N[C@H](CO)C(C)(C)C` was 186 to 187 °C.
The value for `Cc1cnc(NC(=O)[C@H]2[C@H](c3ccccc3)C2(C)C)s1` (relative stereo) was 132 to 135 °C; that for `CCN(C(=O)OC(C)(C)C)C1CC=C(c2c[nH]c3ccc(N)cc23)CC1` (stereo unspecified) was 87 to 89 °C; that for `CCNC(=O)c1cc(NC(=O)c2ccccc2)ccc1[Si](C)(C)C` was 185 to 187 °C.
Regarding `CCC(C(OC)OC)N(C1CCCCC1)C1CCCCC1` (stereo unspecified), the melting point fell in the range of 73.5 to 74.2 °C.
Then `CC(=S)Nc1ccc(-c2nc3ccccc3o2)cc1`, with 212 to 214 °C.
The value for `CC(C)(CNc1ccnc2cc(Cl)ccc12)NCc1ccc(Cl)c(C(F)(F)F)c1` was 158 to 160 °C; that for `c1ccc(Oc2cccnc2N2CCNCC2)cc1` was 56 to 59 °C.
Then `CN(C)S(=O)(=O)c1c(S(N)(=O)=O)c(C(C)(C)C)cn1C`, with 98 to 101 °C.
For the compound `CC(C)(C)OC(=O)c1ncn2c1[C@@H]1CCN1C(=O)c1c(Br)cccc1-2`, the melting point fell in the range of 240 to 241 °C.
As to `COc1cc(C)nc(NC(=O)NS(=O)(=O)c2ccccc2C2CC2(Cl)Cl)n1` (stereo unspecified), the melting point lay in the range of 187 to 191 °C.
Then `CSc1ccc(NC(=O)N2CC(c3ccc(C(F)(F)F)cn3)C(c3ccc(Cl)cc3)=N2)cc1` (stereo unspecified), with 225 to 226 °C; and `CC(C)(C)OC(=O)Nc1ccc(-c2ccc(F)cc2)cc1NC(=O)CC(=O)c1sccc1Cl`, with 168 to 169 °C.
The value for `Cn1nc2nc(C(C)(C)C)[nH]c(=O)c2c1N=Cc1ccccc1` was 250 to 253 °C.
The value for `OC[C@H](O)CNc1ccc2cc(OCC3CC3)ccc2c1` was 138 °C.
On to `CCOC(=O)c1c(C)nc2c(c1N)c1c(n2Cc2ccc(OC)cc2)CCCC1`, for which the melting point lay in the range of 108 to 110 °C.
The value for `C#CCn1c(-c2cc(Cl)nc(Cl)c2)nn(C(C)(C)C)c1=O` was 107 to 109 °C.
Then `Nc1nc(-c2cn([C@H](CO)CCc3ccccc3)cn2)n[nH]1`, with 80 °C; and `CCCc1nn(C)c2c(=O)n(CCNc3ccc(OC(C)(C)C(=O)O)cc3)c(C)nc12`, with 88 to 90 °C; and `O=C(NN1CCNC1=O)Sc1ccccc1`, with 154 to 159 °C.
The value for `CCCn1ccnc1C(=O)Cc1ccc([N+](=O)[O-])cc1` was 95 to 96 °C.
The compound `NC(=O)c1cccc([N+](=O)[O-])c1N` registered a melting point of 238 to 239 °C.
Then `OCC[C@H]1[C@@H]2O[C@@H]2C(F)(F)[C@@H]1O`, with 59 to 59.5 °C.
The compound `CCOc1cccc2cc(C(=O)NNS(=O)(=O)c3ccccc3)oc12` came in with a melting point of 223 to 224 °C.
In the case of `CNC(=O)N(O)Cc1ccc(OCc2ccccc2)cc1`, the melting point is 150 to 153 °C.
Take `O=C(Nc1nc(=O)c2cnn3c2n1CC=C3c1cccc(C(F)(F)F)c1)C(F)(F)F`: the melting point was in the range of 184 to 185 °C.
The value for `CN1CCc2cc(Cl)c(O)cc2[C@H](c2ccccc2)C1` was 188 to 189 °C; that for `CCCCCCOc1ccc(CCC(=O)OC2CCC3C4CCC5=CC(=O)CCC5C4CCC23C)cc1` (stereo unspecified) was 52 to 53 °C.
In turn, `COc1ccc(Br)c(C(=NNS(=O)(=O)c2ccccc2)N2CCN(C)CC2)c1` returned a melting point of 141 to 145 °C.
The compound `COC(=O)Cc1nc(-c2ccccc2)c2cc(Cl)ccc2n1` gave a melting point of 122 to 123 °C.
Take `CC(C)(Br)C(=O)OCCN1C(=O)c2ccccc2C1=O`: the melting point was in the range of 63 to 65 °C.
With `O=C(O)c1ccccc1C(=O)NCCC(Oc1c(Br)cc(-c2ccc(-c3c(Cc4ccccc4)sc4ccccc34)cc2)cc1Br)C(=O)O` (stereo unspecified), the melting point was in the range of 130 to 132 °C.
Then `CCC(OC)(c1cncc(OCc2ccc3ccccc3c2)c1)c1nccs1` (stereo unspecified), with 93 to 95 °C.
`CC(C)c1cccc(C(C)C)c1NC(=O)C(Cc1ccccc1)NC(=O)NCc1ccccc1` (stereo unspecified) showed a melting point of 240 to 241 °C.
Then `CCn1ncc2c(NCCc3ccccc3)c3ccc(OC)cc3nc21`, with 163 to 164 °C.

(Values after a melting point compilation (Tetko et al.; mined from patent text by program, amines drawn as free bases though some values may be those of a salt).)
